Reference: patent US20220168431A1, “METHODS OF TREATING CANCER USING TRIMETAZIDINE-BASED COMPOUNDS” (IMBRIA PHARMACEUTICALS, INC., priority 2019, published 2022)

Tests used:
Details in all cases: 10 μM CV-8814
Adrenergic β1 = Adrenergic β1 (Homo sapiens, UniProt P08588); assay type: binding
Tachykinin NK1 = Tachykinin NK1 (Homo sapiens, UniProt P25103); assay type: binding
PPARγ = PPARγ (Homo sapiens, UniProt P37231); assay type: binding
[1] = biological target: Transporter, Dopamine (DAT) (Homo sapiens, UniProt Q01959); assay type: binding
Cannabinoid CB1 = Cannabinoid CB1 (Homo sapiens, UniProt P21554); assay type: binding
Adrenergic α1A = Adrenergic α1A (Rattus norvegicus, UniProt P43140); assay type: binding
Chain of Adrenergic α1A (P43140 whole entry): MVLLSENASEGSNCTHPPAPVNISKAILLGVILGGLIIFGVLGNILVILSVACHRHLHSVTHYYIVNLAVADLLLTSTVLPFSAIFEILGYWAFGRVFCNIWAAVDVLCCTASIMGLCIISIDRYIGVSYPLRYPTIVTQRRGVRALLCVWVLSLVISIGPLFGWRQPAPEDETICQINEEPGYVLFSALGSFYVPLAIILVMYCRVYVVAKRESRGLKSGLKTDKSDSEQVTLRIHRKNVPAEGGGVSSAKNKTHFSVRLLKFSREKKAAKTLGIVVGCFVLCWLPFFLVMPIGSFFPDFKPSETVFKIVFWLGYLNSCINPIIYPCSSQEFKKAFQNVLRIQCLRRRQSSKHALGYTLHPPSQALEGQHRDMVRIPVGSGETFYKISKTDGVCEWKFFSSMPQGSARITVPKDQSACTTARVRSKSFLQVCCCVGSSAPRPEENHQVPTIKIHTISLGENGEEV

Dopamine D2S = Dopamine D2S (Homo sapiens, UniProt P14416); assay type: binding
Adrenergic α1B = Adrenergic α1B (Rattus norvegicus, UniProt P15823); assay type: binding
Chain of Adrenergic α1B (P15823 whole entry): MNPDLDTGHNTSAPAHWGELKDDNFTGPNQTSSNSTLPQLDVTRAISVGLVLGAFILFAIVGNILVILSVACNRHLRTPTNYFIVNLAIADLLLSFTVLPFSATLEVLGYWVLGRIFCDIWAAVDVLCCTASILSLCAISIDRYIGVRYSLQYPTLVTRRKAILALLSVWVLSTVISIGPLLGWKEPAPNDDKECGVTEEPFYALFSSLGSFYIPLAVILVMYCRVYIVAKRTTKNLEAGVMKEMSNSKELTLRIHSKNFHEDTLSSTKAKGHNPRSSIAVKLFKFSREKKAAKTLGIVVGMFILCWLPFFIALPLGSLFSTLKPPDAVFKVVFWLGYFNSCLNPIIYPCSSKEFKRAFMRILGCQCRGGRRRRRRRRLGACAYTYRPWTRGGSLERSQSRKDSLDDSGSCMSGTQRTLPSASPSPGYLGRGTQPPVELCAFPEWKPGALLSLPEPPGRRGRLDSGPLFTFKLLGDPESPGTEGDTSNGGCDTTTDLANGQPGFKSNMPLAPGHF

Glucocorticoid = Glucocorticoid (Homo sapiens, UniProt P04150); assay type: binding
Cyclooxygenase COX-1 = Cyclooxygenase COX-1 (Homo sapiens, UniProt P23219); assay type: biochemical
Histamine H1 = Histamine H1 (Homo sapiens, UniProt P35367); assay type: binding
Adrenergic α2A = Adrenergic α2A (Homo sapiens, UniProt P08913); assay type: binding
Glutamate, NMDA, Glycine = Glutamate, NMDA, Glycine (Rattus norvegicus, UniProt P35439); assay type: binding
GABAB1A = GABAB1A (Homo sapiens, UniProt Q9UBS5); assay type: binding
[2] = biological target: Cholecystokinin CCK1 (CCKA) (Homo sapiens, UniProt P32238); assay type: binding
Chain of Cholecystokinin CCK1 (CCKA) (P32238 whole entry): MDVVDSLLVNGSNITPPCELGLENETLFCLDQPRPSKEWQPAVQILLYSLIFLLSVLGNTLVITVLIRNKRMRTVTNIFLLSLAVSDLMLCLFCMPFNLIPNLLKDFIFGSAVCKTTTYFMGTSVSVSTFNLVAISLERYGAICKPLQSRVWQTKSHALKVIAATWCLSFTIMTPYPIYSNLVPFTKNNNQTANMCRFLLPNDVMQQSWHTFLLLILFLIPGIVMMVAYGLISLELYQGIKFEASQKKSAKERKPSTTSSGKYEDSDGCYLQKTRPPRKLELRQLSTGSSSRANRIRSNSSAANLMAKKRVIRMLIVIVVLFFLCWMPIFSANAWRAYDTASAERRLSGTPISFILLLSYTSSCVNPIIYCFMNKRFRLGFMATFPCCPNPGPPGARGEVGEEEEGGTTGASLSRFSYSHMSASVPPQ

Dopamine D2L = Dopamine D2L (Homo sapiens, UniProt P14416); assay type: binding
[3] = biological target: Protein Tyrosine Kinase, LCK (Homo sapiens, UniProt P06239); assay type: biochemical
Bradykinin B2 = Bradykinin B2 (Homo sapiens, UniProt P30411); assay type: binding
[4] = biological target: Glutamate, Metabotropic, mGlu5 (Homo sapiens, UniProt P41594); assay type: binding
Chain of Glutamate, Metabotropic, mGlu5 (P41594 21-1212): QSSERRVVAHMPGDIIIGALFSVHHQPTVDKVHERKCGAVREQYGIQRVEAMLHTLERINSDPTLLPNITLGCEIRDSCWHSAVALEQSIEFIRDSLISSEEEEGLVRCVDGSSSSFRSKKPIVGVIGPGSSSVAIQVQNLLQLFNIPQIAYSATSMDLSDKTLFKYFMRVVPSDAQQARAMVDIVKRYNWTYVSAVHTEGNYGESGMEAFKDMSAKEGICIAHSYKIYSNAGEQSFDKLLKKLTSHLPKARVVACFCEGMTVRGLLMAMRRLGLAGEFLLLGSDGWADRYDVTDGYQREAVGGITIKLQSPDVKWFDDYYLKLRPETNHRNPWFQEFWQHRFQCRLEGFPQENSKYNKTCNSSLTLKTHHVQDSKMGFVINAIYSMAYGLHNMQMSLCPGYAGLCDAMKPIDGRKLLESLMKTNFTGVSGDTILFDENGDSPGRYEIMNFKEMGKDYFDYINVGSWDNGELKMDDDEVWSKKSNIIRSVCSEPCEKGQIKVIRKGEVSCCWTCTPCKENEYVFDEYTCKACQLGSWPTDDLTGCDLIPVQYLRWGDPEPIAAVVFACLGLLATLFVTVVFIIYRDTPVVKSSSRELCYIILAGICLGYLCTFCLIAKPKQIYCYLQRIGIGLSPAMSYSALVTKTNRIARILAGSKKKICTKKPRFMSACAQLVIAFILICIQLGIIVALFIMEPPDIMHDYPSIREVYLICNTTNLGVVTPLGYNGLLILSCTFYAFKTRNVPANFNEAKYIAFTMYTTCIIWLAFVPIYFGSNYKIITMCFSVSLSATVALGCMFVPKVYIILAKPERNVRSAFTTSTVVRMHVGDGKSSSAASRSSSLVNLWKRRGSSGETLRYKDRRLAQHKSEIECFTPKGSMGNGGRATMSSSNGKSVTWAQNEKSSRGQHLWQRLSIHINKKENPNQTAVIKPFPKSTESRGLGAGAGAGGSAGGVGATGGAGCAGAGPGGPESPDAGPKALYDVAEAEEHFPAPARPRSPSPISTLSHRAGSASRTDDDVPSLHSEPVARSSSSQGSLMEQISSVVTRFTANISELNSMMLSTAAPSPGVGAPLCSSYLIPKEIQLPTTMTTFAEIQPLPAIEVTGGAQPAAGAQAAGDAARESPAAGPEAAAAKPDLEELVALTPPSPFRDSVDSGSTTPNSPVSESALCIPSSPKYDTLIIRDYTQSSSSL

[5] = biological target: Transporter, Norepinephrine (NET) (Homo sapiens, UniProt P23975); assay type: binding
[6] = biological target: Serotonin (5-Hydroxytryptamine) 5-HT1B (Homo sapiens, UniProt P28222); assay type: binding
[7] = biological target: Cholinesterase, Acetyl, ACES (Homo sapiens, UniProt P22303); assay type: biochemical
Angiotensin AT1 = Angiotensin AT1 (Homo sapiens, UniProt P30556); assay type: binding
Muscarinic M4 = Muscarinic M4 (Homo sapiens, UniProt P08173); assay type: binding
Muscarinic M1 = Muscarinic M1 (Homo sapiens, UniProt P11229); assay type: binding
[8] = biological target: Serotonin (5-Hydroxytryptamine) 5-HT3 (Homo sapiens, UniProt P46098); assay type: binding
[9] = biological target: Peptidase, CTSG (Cathepsin G) (Homo sapiens, UniProt P08311); assay type: biochemical
Chain of Peptidase, CTSG (Cathepsin G) (P08311 21-244): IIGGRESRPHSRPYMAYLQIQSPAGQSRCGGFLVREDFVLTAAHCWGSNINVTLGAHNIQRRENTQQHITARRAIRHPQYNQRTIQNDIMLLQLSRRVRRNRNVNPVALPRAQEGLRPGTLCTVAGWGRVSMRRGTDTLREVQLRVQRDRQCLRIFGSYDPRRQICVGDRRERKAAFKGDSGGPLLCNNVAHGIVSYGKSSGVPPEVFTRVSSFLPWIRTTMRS

Muscarinic M2 = Muscarinic M2 (Homo sapiens, UniProt P08172); assay type: binding
Adrenergic α1D = Adrenergic α1D (Homo sapiens, UniProt P25100); assay type: binding
Muscarinic M3 = Muscarinic M3 (Homo sapiens, UniProt P20309); assay type: binding
Chain of Muscarinic M3 (P20309 whole entry): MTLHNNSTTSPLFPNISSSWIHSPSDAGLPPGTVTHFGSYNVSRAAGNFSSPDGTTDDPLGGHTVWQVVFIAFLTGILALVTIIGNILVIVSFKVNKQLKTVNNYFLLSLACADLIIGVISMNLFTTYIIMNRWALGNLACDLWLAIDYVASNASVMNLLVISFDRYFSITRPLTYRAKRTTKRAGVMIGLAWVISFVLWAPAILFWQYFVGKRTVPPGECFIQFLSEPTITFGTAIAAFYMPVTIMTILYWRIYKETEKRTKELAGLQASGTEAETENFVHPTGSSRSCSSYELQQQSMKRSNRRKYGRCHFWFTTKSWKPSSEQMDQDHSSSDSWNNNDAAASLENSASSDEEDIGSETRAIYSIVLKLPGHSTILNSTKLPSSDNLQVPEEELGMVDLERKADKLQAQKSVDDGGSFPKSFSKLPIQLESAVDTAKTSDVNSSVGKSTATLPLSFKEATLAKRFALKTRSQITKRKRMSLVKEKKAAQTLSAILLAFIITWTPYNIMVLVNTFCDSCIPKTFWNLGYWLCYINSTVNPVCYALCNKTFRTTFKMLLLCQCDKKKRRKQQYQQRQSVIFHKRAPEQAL

Adrenergic α2B = Adrenergic α2B (Homo sapiens, UniProt P18089); assay type: binding
Chain of Adrenergic α2B (P18089 whole entry): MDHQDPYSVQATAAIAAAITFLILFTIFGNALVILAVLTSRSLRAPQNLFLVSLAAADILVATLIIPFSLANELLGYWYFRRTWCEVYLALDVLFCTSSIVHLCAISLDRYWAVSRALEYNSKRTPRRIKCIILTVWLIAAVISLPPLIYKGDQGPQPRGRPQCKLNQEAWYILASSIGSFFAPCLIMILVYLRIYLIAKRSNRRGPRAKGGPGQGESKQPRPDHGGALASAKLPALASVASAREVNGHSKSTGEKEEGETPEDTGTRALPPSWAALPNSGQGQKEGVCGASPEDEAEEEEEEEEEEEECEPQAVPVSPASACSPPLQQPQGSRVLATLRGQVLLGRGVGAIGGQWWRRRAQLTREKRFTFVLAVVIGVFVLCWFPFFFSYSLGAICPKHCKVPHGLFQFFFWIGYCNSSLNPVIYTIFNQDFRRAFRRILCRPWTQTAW

Adenosine A2A = Adenosine A2A (Homo sapiens, UniProt P29274); assay type: binding
Neuropeptide Y Y1 = Neuropeptide Y Y1 (Homo sapiens, UniProt P25929); assay type: binding
Chain of Neuropeptide Y Y1 (P25929 whole entry): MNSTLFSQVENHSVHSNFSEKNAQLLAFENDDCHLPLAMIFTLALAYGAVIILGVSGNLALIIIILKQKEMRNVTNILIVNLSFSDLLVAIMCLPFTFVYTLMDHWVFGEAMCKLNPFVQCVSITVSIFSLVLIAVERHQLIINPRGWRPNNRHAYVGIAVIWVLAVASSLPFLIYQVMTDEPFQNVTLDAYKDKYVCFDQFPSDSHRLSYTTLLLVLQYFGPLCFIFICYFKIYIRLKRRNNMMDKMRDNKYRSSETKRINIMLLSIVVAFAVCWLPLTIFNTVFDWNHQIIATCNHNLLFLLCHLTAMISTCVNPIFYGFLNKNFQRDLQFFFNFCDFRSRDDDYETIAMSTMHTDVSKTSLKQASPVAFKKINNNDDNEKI

[10] = biological target: Cholecystokinin CCK2 (CCKB) (Homo sapiens, UniProt P32239); assay type: binding
Chain of Cholecystokinin CCK2 (CCKB) (P32239 whole entry): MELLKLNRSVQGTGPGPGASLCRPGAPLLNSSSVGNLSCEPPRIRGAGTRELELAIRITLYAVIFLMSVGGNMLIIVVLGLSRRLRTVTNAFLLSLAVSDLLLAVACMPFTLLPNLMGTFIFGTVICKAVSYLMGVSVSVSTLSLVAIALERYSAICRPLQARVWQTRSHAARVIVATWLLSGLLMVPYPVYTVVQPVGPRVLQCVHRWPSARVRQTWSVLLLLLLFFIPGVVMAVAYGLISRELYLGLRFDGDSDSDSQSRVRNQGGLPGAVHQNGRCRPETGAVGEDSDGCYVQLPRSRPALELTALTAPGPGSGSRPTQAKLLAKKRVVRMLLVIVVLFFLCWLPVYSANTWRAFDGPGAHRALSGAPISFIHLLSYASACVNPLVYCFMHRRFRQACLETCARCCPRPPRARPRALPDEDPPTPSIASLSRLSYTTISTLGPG

[11] = biological target: Serotonin (5-Hydroxytryptamine) 5-HT2B (Homo sapiens, UniProt P41595); assay type: binding
Dopamine D1 = Dopamine D1 (Homo sapiens, UniProt P21728); assay type: binding
Adrenergic β2 = Adrenergic β2 (Homo sapiens, UniProt P07550); assay type: binding
Endothelin ETA = Endothelin ETA (Homo sapiens, UniProt P25101); assay type: binding
Melanocortin MC4 = Melanocortin MC4 (Homo sapiens, UniProt P32245); assay type: binding
Chemokine CCR1 = Chemokine CCR1 (Homo sapiens, UniProt P32246); assay type: binding

Measured: inhibition at 10 µM

COc1ccc(CN2CCN(CCO)CC2)c(OC)c1OC [CV-8814, 2-(4-(2,3,4-trimethoxybenzyl)piperazin-1-yl)ethan-1-01]
< 50%: all assays above
